# Values of other authors, collected in patent US20230338288A1, “ASYMMETRIC CHARGED VESICLES AND METHODS OF PREPARING AND USE THEREOF” (The Research Foundation for the State University of New York, priority 2020, published 2023).
# Details: compared with Doxil (liposome-encapsulated Dox)
structure (smiles),measurement,value
"COc1cccc2c1C(=O)c1c(O)c3c(c(O)c1C2=O)C[C@@](O)(C(=O)CO)C[C@@H]3O[C@H]1C[C@H](N)[C@H](O)[C@H](C)O1 [Dox, Doxorubicin]","dose that can be delivered without exhibiting cardiotoxicity, fold less than with Doxil",10-50 fold
